Data as given in publication PMC12348798, “Synthesis and Molecular Modeling of Antioxidant and Anti-Inflammatory Five-Membered Heterocycle–Cinnamic Acid Hybrids” (Molecules, 2025).

Legend:
[1] = Interaction with the stable free radical DPPH (reducing activity)
Experimental: Firstly, the synthesized derivatives were evaluated for their ability to interact with the stable free radical 2,2-diphenyl-1-picrylhydrazyl (DPPH) at a concentration of 100 μM after 20 and 60 min (Table 2). DPPH is a valuable tool for studying antioxidant activity. Its reactivity with lipophilic compounds is not solely determined by their lipophilicity. The specific chemical structure of the antioxidant, the solvent used, and other factors can all influence the interaction with DPPH. However, lipophilic compounds tend to be well dissolved in organic solvents reacting with DPPH. Based on previous findings, the antioxidant activity is related with lipophilicity.
(§1) A 10 mM stock solution of the synthesized compounds was prepared in DMSO for the vitro assays. Serial dilutions were carried out to determine the IC50 values. Each experiment was conducted six times, with standard deviations remaining below 10% of the mean.
An in vitro study was conducted as previously described by our group. Free radical scavenging activity was evaluated by measuring absorbance at 517 nm after 20 and 60 min at room temperature.

[2] = Inhibition of AAPH-induced linoleic acid peroxidation
Experimental: In the lipid peroxidation assay, 2,2′-azobis(2-methylpropionamidine)dihydrochloride (AAPH) was used as a peroxyl radical inducer, and sodium linoleate as a substrate. The formation of 13-hydroperoxy-linoleic acid from linoleic acid was monitored by measuring absorbance at 234 nm. Trolox was used as a reference compound.
as §1
AAPH was employed as an inducer of alkyl peroxyl radicals. In this experiment, the compounds’ ability to inhibit the oxidation of linoleic acid by alkyl peroxyl radicals was assessed by monitoring the change in absorbance at 234 nm due to the formation of 13-hydroperoxy-linoleic acid. Trolox was used as the reference compound [59, 68].

soybean lipoxygenase = biological target: T1, soybean lipoxygenase (Glycine max, UniProt P08170); assay: Inhibition of soybean lipoxygenase; assay type: biochemical; conditions: for IC50: soybean lipoxygenase, sodium linoleate substrate, read-out: LOX IC50; for inhibition at 100 µM: read-out: LOX % Inhibition 100 μM
T1 construct: purchased Sigma Aldrich, Merck KGaA, Darmstadt, Germany
T1 sequence (P08170 1-839): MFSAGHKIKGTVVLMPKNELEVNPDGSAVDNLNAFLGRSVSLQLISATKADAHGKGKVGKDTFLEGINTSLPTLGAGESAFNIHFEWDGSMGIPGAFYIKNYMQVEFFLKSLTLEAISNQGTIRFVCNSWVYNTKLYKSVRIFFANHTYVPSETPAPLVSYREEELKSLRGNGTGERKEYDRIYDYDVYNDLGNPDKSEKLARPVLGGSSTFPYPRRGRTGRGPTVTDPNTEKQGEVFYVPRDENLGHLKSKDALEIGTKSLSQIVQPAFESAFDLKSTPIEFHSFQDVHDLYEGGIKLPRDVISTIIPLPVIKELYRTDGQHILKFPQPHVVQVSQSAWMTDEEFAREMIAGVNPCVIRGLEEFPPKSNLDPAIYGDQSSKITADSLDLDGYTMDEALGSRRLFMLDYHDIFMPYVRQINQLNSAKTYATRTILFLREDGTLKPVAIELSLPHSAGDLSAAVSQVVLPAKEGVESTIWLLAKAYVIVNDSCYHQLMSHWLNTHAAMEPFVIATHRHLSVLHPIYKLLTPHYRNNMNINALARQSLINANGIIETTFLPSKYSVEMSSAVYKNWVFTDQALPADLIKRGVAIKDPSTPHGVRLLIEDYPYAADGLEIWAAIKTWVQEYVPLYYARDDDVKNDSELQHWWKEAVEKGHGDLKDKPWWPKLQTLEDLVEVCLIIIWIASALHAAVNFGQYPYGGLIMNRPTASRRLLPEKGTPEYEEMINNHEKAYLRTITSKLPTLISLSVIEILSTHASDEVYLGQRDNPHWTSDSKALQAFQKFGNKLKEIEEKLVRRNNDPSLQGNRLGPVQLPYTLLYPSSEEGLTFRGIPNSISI
Experimental: Lipoxygenase (LOX) is responsible for the formation of leukotrienes, important inflammatory mediators. Due to its important role, it is considered as a therapeutic target for inflammatory diseases. Soybean lipoxygenase (LOX), a plant-derived enzyme, has been extensively utilized as a model for investigating the functional and structural properties of the lipoxygenase family, due to its significant homology with human 5-LOX [35, 61].
A 10 mM stock solution of the synthesized compounds was prepared in DMSO for the vitro assays. Serial dilutions were carried out to determine the IC50 values.
Sodium linoleate (0.1 mM), 0.2 mL of soybean lipoxygenase solution (1/9 × 10^−4 w/v in saline), and 10 μL of the test compound stock solution (10 mM in DMSO) were incubated at room temperature. Absorbance was recorded at 234 nm while monitoring the formation of 13-hydroperoxy-linoleic acid. […] To determine IC50 values, various concentrations of the test compounds were applied.

[3] = tested on: Valosine-containing protein; parameters: method as in PMID 23245311; conditions: from the literature; cited from earlier work

## O=C(C=Cc1ccccc1)NNC(=S)Nc1ccccc1 [Compound 3a, 2-Cinnamoyl-N-phenylhydrazine-1-carbothioamide]
[1]
  RA % 100 μM 20 min: 61%
  RA % 100 μM 60 min: 92%
[2]
  AAPH % Inhibition 100 μM: 67%
Soybean lipoxygenase
  IC50: 8.5 µM

## O=C(/C=C/c1ccc(Cl)cc1)NNC(=S)Nc1ccccc1 [Compound 3b, (E)-2-(3-(4-Chlorophenyl)acryloyl)-N-phenylhydrazine-1-carbothioamide]
[1]
  RA % 100 μM 20 min: 90%
  RA % 100 μM 60 min: 83%
[2]
  AAPH % Inhibition 100 μM: 37%
Soybean lipoxygenase
  inhibition at 100 µM: 49%

## O=C(/C=C/c1ccc(F)cc1)NNC(=S)Nc1ccccc1 [Compound 3c, (E)-2-(3-(4-Fluorophenyl)acryloyl)-N-phenylhydrazine-1-carbothioamide]
[1]
  RA % 100 μM 20 min: 90%
  RA % 100 μM 60 min: 91%
[2]
  AAPH % Inhibition 100 μM: 12%
Soybean lipoxygenase
  inhibition at 100 µM: 45%

## O=C(/C=C/c1ccc(Br)cc1)NNC(=S)Nc1ccccc1 [Compound 3d, (E)-2-(3-(4-Bromophenyl)acryloyl)-N-phenylhydrazine-1-carbothioamide]
[1]
  RA % 100 μM 20 min: 29%
  RA % 100 μM 60 min: 97%
[2]
  AAPH % Inhibition 100 μM: 33%
Soybean lipoxygenase
  IC50: 8 µM

## CC(=O)Oc1ccc(/C=C/C(=O)NNC(=S)Nc2ccccc2)cc1 [Compound 3e, (E)-4-(3-Oxo-3-(2-(phenylcarbamothioyl)hydrazineyl)prop-1-en-1-yl)phenyl acetate]
[1]
  RA % 100 μM 20 min: 83%
  RA % 100 μM 60 min: 21%
[2]
  AAPH % Inhibition 100 μM: 47%
Soybean lipoxygenase
  IC50: 9.75 µM

## O=C(/C=C/c1ccc2c(c1)OCO2)NNC(=S)Nc1ccccc1 [Compound 3f, (E)-2-(3-(Benzo[d][1,3]dioxol-5-yl)acryloyl)-N-phenylhydrazine-1-carbothioamide]
[1]
  RA % 100 μM 20 min: 70%
  RA % 100 μM 60 min: 89%
[2]
  AAPH % Inhibition 100 μM: 58%
Soybean lipoxygenase
  IC50: 35 µM

## O=C(/C=C/c1ccc(OCc2ccc(Br)cc2)cc1)NNC(=S)Nc1ccccc1 [Compound 3g, (E)-2-(3-(4-((4-Bromobenzyl)oxy)phenyl)acryloyl)-N-phenylhydrazine-1-carbothioamide]
[1]
  RA % 100 μM 20 min: 98%
  RA % 100 μM 60 min: 87%
[2]
  AAPH % Inhibition 100 μM: 91%
Soybean lipoxygenase
  IC50: 10 µM

## Sc1nnc(/C=C/c2ccccc2)n1-c1ccccc1 [Compound 4a, (E)-4-Phenyl-5-styryl-4H-1,2,4-triazole-3-thiol]
[1]
  RA % 100 μM 20 min: 74%
  RA % 100 μM 60 min: 93%
[2]
  AAPH % Inhibition 100 μM: 26%
Soybean lipoxygenase
  IC50: 7.5 µM

## Sc1nnc(/C=C/c2ccc(Cl)cc2)n1-c1ccccc1 [Compound 4b, (E)-5-(4-Chlorostyryl)-4-phenyl-4H-1,2,4-triazole-3-thiol]
[1]
  RA % 100 μM 20 min: 33%
  RA % 100 μM 60 min: 88%
[2]
  AAPH % Inhibition 100 μM: 34%
Soybean lipoxygenase
  IC50: 4.5 µM

## Fc1ccc(/C=C/c2nnc(S)n2-c2ccccc2)cc1 [Compound 4c, (E)-5-(4-Fluorostyryl)-4-phenyl-4H-1,2,4-triazole-3-thiol]
[1]
  RA % 100 μM 20 min: 82%
  RA % 100 μM 60 min: 93%
[2]
  AAPH % Inhibition 100 μM: 94%
Soybean lipoxygenase
  inhibition at 100 µM: 35%

## Sc1nnc(/C=C/c2ccc(Br)cc2)n1-c1ccccc1 [Compound 4d, (E)-5-(4-Bromostyryl)-4-phenyl-4H-1,2,4-triazole-3-thiol]
[1]
  RA % 100 μM 20 min: 68%
  RA % 100 μM 60 min: 57%
[2]
  AAPH % Inhibition 100 μM: 20%
Soybean lipoxygenase
  IC50: 97.5 µM
[3]
  Valosine-containing protein inhibition: allosteric Valosine-containing protein inhibitor

## CC(=O)Oc1ccc(/C=C/c2nnc(S)n2-c2ccccc2)cc1 [Compound 4e, (E)-4-(2-(5-Mercapto-4-phenyl-4H-1,2,4-triazol-3-yl)vinyl)phenyl acetate]
[1]
  RA % 100 μM 20 min: 96%
  RA % 100 μM 60 min: 93%
[2]
  AAPH % Inhibition 100 μM: 87%
Soybean lipoxygenase
  IC50: 5.5 µM

## Sc1nnc(/C=C/c2ccc3c(c2)OCO3)n1-c1ccccc1 [Compound 4f, (E)-5-(2-(Benzo[d][1,3]dioxol-5-yl)vinyl)-4-phenyl-4H-1,2,4-triazole-3-thiol]
[1]
  RA % 100 μM 20 min: 87%
  RA % 100 μM 60 min: 76%
[2]
  AAPH % Inhibition 100 μM: 71%
Soybean lipoxygenase
  IC50: 7.5 µM

## Sc1nnc(/C=C/c2ccc(OCc3ccc(Br)cc3)cc2)n1-c1ccccc1 [Compound 4g, (E)-5-(4-((4-Bromobenzyl)oxy)styryl)-4-phenyl-4H-1,2,4-triazole-3-thiol]
[1]
  RA % 100 μM 20 min: 97%
  RA % 100 μM 60 min: 92%
[2]
  AAPH % Inhibition 100 μM: 50%
Soybean lipoxygenase
  IC50: 4.5 µM

## C(=C\c1nnc(Nc2ccccc2)o1)/c1ccccc1 [Compound 5a, (E)-N-Phenyl-5-styryl-1,3,4-oxadiazol-2-amine]
[1]
  RA % 100 μM 60 min: 7%
[2]
  AAPH % Inhibition 100 μM: 17%
Soybean lipoxygenase
  IC50: 32.5 µM

## Clc1ccc(/C=C/c2nnc(Nc3ccccc3)o2)cc1 [Compound 5b, (E)-5-(4-Chlorostyryl)-N-phenyl-1,3,4-oxadiazol-2-amine]
[1]
  RA % 100 μM 20 min: 65%
  RA % 100 μM 60 min: 72%
Soybean lipoxygenase
  IC50: 18 µM

## Fc1ccc(/C=C/c2nnc(Nc3ccccc3)o2)cc1 [Compound 5c, (E)-5-(4-Fluorostyryl)-N-phenyl-1,3,4-oxadiazol-2-amine]
[1]
  RA % 100 μM 20 min: 92%
  RA % 100 μM 60 min: 82%
[2]
  AAPH % Inhibition 100 μM: 63%
Soybean lipoxygenase
  IC50: 17 µM

## C(=C\c1nnc(Nc2ccccc2)s1)/c1ccccc1 [Compound 6a, (E)-N-Phenyl-5-styryl-1,3,4-thiadiazol-2-amine]
[1]
  RA % 100 μM 20 min: 98%
  RA % 100 μM 60 min: 96%
[2]
  AAPH % Inhibition 100 μM: 60%
Soybean lipoxygenase
  IC50: 5 µM

## CC(Cc1ccc(O)c(O)c1)C(C)Cc1ccc(O)c(O)c1 (centres unmarked) [NDGA, Nordihydroguaiaretic acid, reference compound]
[1]
  RA % 100 μM 20 min: 87%
  RA % 100 μM 60 min: 93%

## Cc1c(C)c2c(c(C)c1O)CCC(C)(C(=O)O)O2 (centres unmarked) [Trolox, 6-hydroxy-2,5,7,8-tetramethyl-chroman2-carboxylic acid, reference compound]
[2]
  AAPH % Inhibition 100 μM: 92%
